The text below walks through data of patent US9809623B2, “α4β7 peptide monomer and dimer antagonists” (Protagonist Therapeutics, Inc., priority 2014, dated 2017).

Numbered stars: 1 amine (or outer) side, 2 acyl side, 3 side chain; on linkers, the order of the positions; unused ones are H or OH. Bridge positions count the residues as written; N and C are the ends. Square brackets hold non-standard residues; d marks the D form. Peptide text beside a SMILES is read from it. I, II: the chains in the order shown. * marks the point of attachment. X1 = O=C(CCOCCOCCOCCOCCOCCOCCOCCOCCOCCOCCOCCOCCOCCOCCOCCOCCOCCOCCOCCOCCOCCOCCOCCOCCOCCOCCC(=O)[*:2])[*:1]; Phe(4-tBu) = CC(C)(C)c1ccc(C[C@H](N)C(=O)O)cc1; Phe(4-CN) = N#Cc1ccc(C[C@H](N)C(=O)O)cc1; 1Nal = N[C@@H](Cc1cccc2ccccc12)C(=O)O; 2Nal = N[C@@H](Cc1ccc2ccccc2c1)C(=O)O; Diglycolyl = O=C(COCC(=O)[*:2])[*:1]; NMeR = CN[C@@H](CCCNC(=N)N)C(=O)O; β3hE = N[C@@H](CCC(=O)O)CC(=O)O; Pen = CC(C)(S)[C@H](N)C(=O)O; Hexanoyl = CCCCCC(=O)* Some results are limits rather than exact numbers.

α4β7, sequence (P13612 34-1032): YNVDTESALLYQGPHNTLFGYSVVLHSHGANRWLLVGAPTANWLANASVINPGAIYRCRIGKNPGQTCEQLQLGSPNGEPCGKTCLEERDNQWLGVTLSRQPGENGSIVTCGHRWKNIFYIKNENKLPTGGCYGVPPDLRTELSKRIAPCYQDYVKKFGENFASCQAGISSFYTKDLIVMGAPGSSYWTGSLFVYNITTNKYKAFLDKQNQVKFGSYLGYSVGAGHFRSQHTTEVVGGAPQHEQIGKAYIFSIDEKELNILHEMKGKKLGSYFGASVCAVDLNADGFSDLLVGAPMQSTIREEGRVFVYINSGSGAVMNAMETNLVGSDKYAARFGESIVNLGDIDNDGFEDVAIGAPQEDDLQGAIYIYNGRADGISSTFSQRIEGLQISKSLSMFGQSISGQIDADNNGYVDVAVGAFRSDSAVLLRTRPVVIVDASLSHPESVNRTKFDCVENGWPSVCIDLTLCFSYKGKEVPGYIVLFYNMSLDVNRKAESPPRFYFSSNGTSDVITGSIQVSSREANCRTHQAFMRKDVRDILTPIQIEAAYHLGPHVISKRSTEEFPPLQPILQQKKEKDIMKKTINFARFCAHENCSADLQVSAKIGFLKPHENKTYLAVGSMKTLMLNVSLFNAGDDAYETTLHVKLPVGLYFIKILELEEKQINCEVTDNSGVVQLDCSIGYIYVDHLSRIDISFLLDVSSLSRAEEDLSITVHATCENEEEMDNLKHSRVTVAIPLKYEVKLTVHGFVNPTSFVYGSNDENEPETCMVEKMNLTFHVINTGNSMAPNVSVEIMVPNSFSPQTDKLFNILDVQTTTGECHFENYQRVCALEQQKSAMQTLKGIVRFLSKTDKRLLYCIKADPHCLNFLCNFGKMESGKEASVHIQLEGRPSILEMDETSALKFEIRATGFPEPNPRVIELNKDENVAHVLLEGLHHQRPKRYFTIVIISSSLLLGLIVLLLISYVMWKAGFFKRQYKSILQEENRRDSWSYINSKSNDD
α4β7, sequence (P26010 20-798): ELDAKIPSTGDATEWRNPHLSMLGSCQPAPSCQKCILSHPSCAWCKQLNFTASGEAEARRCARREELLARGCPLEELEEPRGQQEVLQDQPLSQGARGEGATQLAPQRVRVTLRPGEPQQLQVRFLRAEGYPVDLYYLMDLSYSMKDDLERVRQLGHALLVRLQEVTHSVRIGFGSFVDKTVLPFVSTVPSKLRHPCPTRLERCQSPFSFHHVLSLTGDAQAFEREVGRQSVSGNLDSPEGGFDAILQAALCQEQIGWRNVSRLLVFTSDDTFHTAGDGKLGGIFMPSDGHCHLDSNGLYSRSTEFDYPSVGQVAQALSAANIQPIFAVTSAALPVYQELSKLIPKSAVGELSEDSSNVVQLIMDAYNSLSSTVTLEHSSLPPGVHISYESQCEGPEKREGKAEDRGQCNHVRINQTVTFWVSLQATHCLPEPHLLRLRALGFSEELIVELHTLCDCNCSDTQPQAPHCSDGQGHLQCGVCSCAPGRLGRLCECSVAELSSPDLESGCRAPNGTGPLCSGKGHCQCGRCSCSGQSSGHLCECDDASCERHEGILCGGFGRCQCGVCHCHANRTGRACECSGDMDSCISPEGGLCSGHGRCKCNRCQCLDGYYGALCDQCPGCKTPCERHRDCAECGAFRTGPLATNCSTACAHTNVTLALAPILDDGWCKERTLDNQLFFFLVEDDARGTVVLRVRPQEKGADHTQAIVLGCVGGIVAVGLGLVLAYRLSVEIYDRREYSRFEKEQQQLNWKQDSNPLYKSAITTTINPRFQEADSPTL

The test addresses α4β7 (Homo sapiens, UniProt P13612+P26010). The test can be described thus: α4β7-MAdCAM Cell Adhesion Assay (RPMI 8866 human cells). The class given is cell-based. Also noted: host or cells: RPMI 8866 human B lymphoblastoid cells. The following applies: Table 3-B, Potency (α4β7); range classes; read-out: α4β7 cell (Hu) IC50. As to the method: RPMI 8866 human cells (Sigma #95041316) were cultured in RPMI 1640 HEPES medium (Invitrogen #22400-089) supplemented with 10% serum (Fetal Bovine Serum, Invitrogen #16140-071), 1 mM sodium pyruvate (Invitrogen #11360-070), 2 mM L-glutamine (Invitrogen #25030-081) and Penicillin-Streptomycin (Invitrogen #15140-122) at 100 units of penicillin and 100 μg of streptomycin per ml. The cells were washed two times in DMEM medium (ATCC #30-2002) supplemented with 0.1% BSA, 10 mM HEPES pH 7 and 1 mM MnCl2. The cells were re-suspended in supplemented DMEM medium at a density of 4×10^6 cells/ml.
A Nunc MaxiSorp plate was coated with rh MAdCAM-1/Fc Chimera (R&D #6065-MC) at 200 ng per well in 50 ul per well in 1×PBS and incubated at 4° C. overnight. The solution was then removed by shaking, blocked with 250 ul per well PBS containing 1% BSA, and incubated at 37° C. for 1 hr. The solution was removed by shaking. Peptides were diluted by serial dilution in a final volume of 50 ul per well (2× concentration). To each well, 50 ul of cells (200,000 cells) were added and the plate was incubated at 37° C., 5% CO2 for 30-45 min to allow cell adhesion. The wells were washed manually three times (100 ul per wash) with supplemented DMEM. After the final wash, 100 ul/well of supplemented DMEM and 10 ul/well of MTT reagent (ATTC cat#30-1010K) were added. The plate was incubated at 37° C., 5% CO2 for 2-3 hrs until a purple precipitate was visible. 100 ul of Detergent Reagent (ATTC cat#30-1010K) was added to each well. The plate was covered from the light, wrapped in Parafilm to prevent evaporation, and left overnight at room temperature in the dark. The plate was shaken for 5 min and the absorbance at 570 nm was measured. To calculate the dose response, the absorbance value of control wells not containing cells was subtracted from each test well.
In general, IC50 refers to the concentration needed to halve the response being measured. For `CC[C@H](C)[C@@H]1NC(=O)[C@H](CC(=O)O)NC(=O)[C@H](CO)NC(=O)[C@H](CCCNC(=N)N)N(C)C(=O)[C@@H](NC(C)=O)C(C)(C)SSC(C)(C)[C@@H](C(=O)N[C@@H](Cc2ccc3ccccc3c2)C(=O)N[C@H](CCC(=O)O)C(N)=O)NC(=O)[C@H](CC(C)C)NC1=O` [compound 160] (Ac-[Pen][NMeR]SDIL[Pen][2Nal][dE]-NH2; disulfide 1-7), the IC50 lay within 1000 to 10000 nM.

Consider `CC(=O)N[C@@H]1C(=O)N(C)[C@@H](CCCNC(=N)N)C(=O)N[C@@H](CO)C(=O)N[C@@H](CC(=O)O)C(=O)N[C@@H]([C@@H](C)O)C(=O)N[C@@H](CC(C)C)C(=O)N[C@H](C(=O)N[C@@H](Cc2ccc3ccccc3c2)C(=O)N[C@@H](C(=O)N[C@H](CCCCNC(=O)COCC(=O)NCCCC[C@@H](NC(=O)[C@H](NC(=O)[C@H](Cc2ccc3ccccc3c2)NC(=O)[C@H]2NC(=O)[C@H](CC(C)C)NC(=O)[C@H]([C@@H](C)O)NC(=O)[C@H](CC(=O)O)NC(=O)[C@H](CO)NC(=O)[C@H](CCCNC(=N)N)N(C)C(=O)[C@@H](NC(C)=O)C(C)(C)SSC2(C)C)[C@H](C)O)C(N)=O)C(N)=O)[C@H](C)O)C(C)(C)SSC1(C)C` [compound 140] (I: Ac-[Pen][NMeR]SDTL[Pen][2Nal][dT][dK]-NH2 / II: Ac-[Pen][NMeR]SDTL[Pen][2Nal][dT][dK]-NH2; disulfide I:1-I:7, II:1-II:7; linker I:10-II:10 via Diglycolyl), for which the IC50 fell in the range of 10 to 25 nM.

As to `CC(=O)N[C@@H]1C(=O)N(C)[C@@H](CCCNC(=N)N)C(=O)N[C@@H](CO)C(=O)N[C@@H](CC(=O)O)C(=O)N[C@@H]([C@@H](C)O)C(=O)N[C@@H](CC(C)C)C(=O)N[C@H](C(=O)N[C@@H](Cc2ccc(C#N)cc2)C(=O)N[C@@H](CCC(=O)O)CC(=O)N[C@H](CCCCNC(=O)COCC(=O)NCCCC[C@@H](NC(=O)C[C@H](CCC(=O)O)NC(=O)[C@H](Cc2ccc(C#N)cc2)NC(=O)[C@H]2NC(=O)[C@H](CC(C)C)NC(=O)[C@H]([C@@H](C)O)NC(=O)[C@H](CC(=O)O)NC(=O)[C@H](CO)NC(=O)[C@H](CCCNC(=N)N)N(C)C(=O)[C@@H](NC(C)=O)C(C)(C)SSC2(C)C)C(N)=O)C(N)=O)C(C)(C)SSC1(C)C` [compound 139] (I: Ac-[Pen][NMeR]SDTL[Pen][Phe(4-CN)][β3hE][dK]-NH2 / II: Ac-[Pen][NMeR]SDTL[Pen][Phe(4-CN)][β3hE][dK]-NH2; disulfide I:1-I:7, II:1-II:7; linker I:10-II:10 via Diglycolyl), the IC50 was < 10 nM.

As to `CC(=O)N[C@@H]1C(=O)N(C)[C@@H](CCCNC(=N)N)C(=O)N[C@@H](CO)C(=O)N[C@@H](CC(=O)O)C(=O)N[C@@H]([C@@H](C)O)C(=O)N[C@@H](CC(C)C)C(=O)N[C@H](C(=O)N[C@@H](Cc2ccc(C(C)(C)C)cc2)C(=O)N[C@H](CCC(=O)O)C(=O)N[C@H](CCCCNC(=O)COCC(=O)NCCCC[C@@H](NC(=O)[C@@H](CCC(=O)O)NC(=O)[C@H](Cc2ccc(C(C)(C)C)cc2)NC(=O)[C@H]2NC(=O)[C@H](CC(C)C)NC(=O)[C@H]([C@@H](C)O)NC(=O)[C@H](CC(=O)O)NC(=O)[C@H](CO)NC(=O)[C@H](CCCNC(=N)N)N(C)C(=O)[C@@H](NC(C)=O)C(C)(C)SSC2(C)C)C(N)=O)C(N)=O)C(C)(C)SSC1(C)C` [compound 106] (I: Ac-[Pen][NMeR]SDTL[Pen][Phe(4-tBu)][dE][dK]-NH2 / II: Ac-[Pen][NMeR]SDTL[Pen][Phe(4-tBu)][dE][dK]-NH2; disulfide I:1-I:7, II:1-II:7; linker I:10-II:10 via Diglycolyl), the IC50 is < 10 nM.

As for `CC(=O)N[C@@H]1C(=O)N(C)[C@@H](CCCNC(=N)N)C(=O)N[C@@H](CO)C(=O)N[C@@H](CC(=O)O)C(=O)N[C@@H]([C@@H](C)O)C(=O)N[C@@H](CC(C)C)C(=O)N[C@H](C(=O)N[C@@H](Cc2c[nH]c3ccccc23)C(=O)N[C@@H](CC(N)=O)C(=O)N[C@H](CCCCNC(=O)COCC(=O)NCCCC[C@@H](NC(=O)[C@H](CC(N)=O)NC(=O)[C@H](Cc2c[nH]c3ccccc23)NC(=O)[C@H]2NC(=O)[C@H](CC(C)C)NC(=O)[C@H]([C@@H](C)O)NC(=O)[C@H](CC(=O)O)NC(=O)[C@H](CO)NC(=O)[C@H](CCCNC(=N)N)N(C)C(=O)[C@@H](NC(C)=O)C(C)(C)SSC2(C)C)C(N)=O)C(N)=O)C(C)(C)SSC1(C)C` [compound 83] (I: Ac-[Pen][NMeR]SDTL[Pen]WN[dK]-NH2 / II: Ac-[Pen][NMeR]SDTL[Pen]WN[dK]-NH2; disulfide I:1-I:7, II:1-II:7; linker I:10-II:10 via Diglycolyl), the IC50 is 50 to 100 nM.

Turning to `CC(=O)N[C@H]1CSSC(C)(C)[C@@H](C(=O)N[C@@H](Cc2c[nH]c3ccccc23)C(=O)N[C@H](CCCCNC(=O)CCOCCOCCOCCOCCOCCOCCOCCOCCOCCOCCOCCOCCOCCOCCOCCOCCOCCOCCOCCOCCOCCOCCOCCOCCOCCOCCC(=O)NCCCC[C@@H](NC(=O)[C@H](Cc2c[nH]c3ccccc23)NC(=O)[C@H]2NC(=O)[C@H](CC(C)C)NC(=O)[C@H]([C@@H](C)O)NC(=O)[C@H](CC(=O)O)NC(=O)[C@H](CO)NC(=O)[C@H](CCCNC(=N)N)N(C)C(=O)[C@@H](NC(C)=O)CSSC2(C)C)C(N)=O)C(N)=O)NC(=O)[C@H](CC(C)C)NC(=O)[C@H]([C@@H](C)O)NC(=O)[C@H](CC(=O)O)NC(=O)[C@H](CO)NC(=O)[C@H](CCCNC(=N)N)N(C)C1=O` [compound 37] (I: Ac-C[NMeR]SDTL[Pen]W[dK]-NH2 / II: Ac-C[NMeR]SDTL[Pen]W[dK]-NH2; disulfide I:1-I:7, II:1-II:7; linker I:9-II:9 via X1), the IC50 was in the range of 100 to 500 nM.

Consider `CC(=O)N[C@@H]1C(=O)N(C)[C@@H](CCCNC(=N)N)C(=O)N[C@@H](CO)C(=O)N[C@@H](CC(=O)O)C(=O)N[C@@H]([C@@H](C)O)C(=O)N[C@@H](CC(C)C)C(=O)N[C@H](C(=O)N[C@@H](Cc2cccc3ccccc23)C(=O)N[C@H](CCCNC(=N)N)C(=O)N[C@H](CCCCNC(=O)COCC(=O)NCCCC[C@@H](NC(=O)[C@@H](CCCNC(=N)N)NC(=O)[C@H](Cc2cccc3ccccc23)NC(=O)[C@H]2NC(=O)[C@H](CC(C)C)NC(=O)[C@H]([C@@H](C)O)NC(=O)[C@H](CC(=O)O)NC(=O)[C@H](CO)NC(=O)[C@H](CCCNC(=N)N)N(C)C(=O)[C@@H](NC(C)=O)C(C)(C)SSC2(C)C)C(N)=O)C(N)=O)C(C)(C)SSC1(C)C` [compound 114] (I: Ac-[Pen][NMeR]SDTL[Pen][1Nal][dR][dK]-NH2 / II: Ac-[Pen][NMeR]SDTL[Pen][1Nal][dR][dK]-NH2; disulfide I:1-I:7, II:1-II:7; linker I:10-II:10 via Diglycolyl), for which the IC50 lay within 100 to 500 nM.

In the case of `CCCCCC(=O)N[C@@H]1C(=O)N(C)[C@@H](CCCNC(=N)N)C(=O)N[C@@H](CO)C(=O)N[C@@H](CC(=O)O)C(=O)N[C@@H]([C@@H](C)O)C(=O)N[C@@H](CC(C)C)C(=O)N[C@H](C(=O)N[C@@H](Cc2ccc(C(C)(C)C)cc2)C(=O)N[C@@H](CCC(=O)O)CC(=O)N[C@H](CCCCN)C(N)=O)C(C)(C)SSC1(C)C` [compound 176] (Hexanoyl-[Pen][NMeR]SDTL[Pen][Phe(4-tBu)][β3hE][dK]-NH2; disulfide 1-7), the IC50 was in the range of 50 to 100 nM.

As for `CC(=O)N[C@@H]1C(=O)N(C)[C@@H](CCCNC(=N)N)C(=O)N[C@@H](CO)C(=O)N[C@@H](CC(=O)O)C(=O)N[C@@H]([C@@H](C)O)C(=O)N[C@@H](CC(C)C)C(=O)N[C@H](C(=O)N[C@@H](Cc2ccc3ccccc3c2)C(=O)N[C@H](CC(C)C)C(=O)N[C@H](CCCCNC(=O)COCC(=O)NCCCC[C@@H](NC(=O)[C@@H](CC(C)C)NC(=O)[C@H](Cc2ccc3ccccc3c2)NC(=O)[C@H]2NC(=O)[C@H](CC(C)C)NC(=O)[C@H]([C@@H](C)O)NC(=O)[C@H](CC(=O)O)NC(=O)[C@H](CO)NC(=O)[C@H](CCCNC(=N)N)N(C)C(=O)[C@@H](NC(C)=O)C(C)(C)SSC2(C)C)C(N)=O)C(N)=O)C(C)(C)SSC1(C)C` [compound 119] (I: Ac-[Pen][NMeR]SDTL[Pen][2Nal][dL][dK]-NH2 / II: Ac-[Pen][NMeR]SDTL[Pen][2Nal][dL][dK]-NH2; disulfide I:1-I:7, II:1-II:7; linker I:10-II:10 via Diglycolyl), the IC50 was 500 to 1000 nM.

`CC[C@H](C)[C@@H]1NC(=O)[C@H](CC(=O)O)NC(=O)[C@H](CO)NC(=O)[C@H](CCCNC(=N)N)N(C)C(=O)[C@@H](NC(C)=O)C(C)(C)SSC(C)(C)[C@@H](C(=O)N[C@@H](Cc2ccc(C(C)(C)C)cc2)C(=O)N[C@@H](CCC(=O)O)CC(=O)N[C@H](CCCCNC(=O)CN(CC(=O)NCCCC[C@@H](NC(=O)C[C@H](CCC(=O)O)NC(=O)[C@H](Cc2ccc(C(C)(C)C)cc2)NC(=O)[C@H]2NC(=O)[C@H](CC(C)C)NC(=O)[C@H]([C@@H](C)CC)NC(=O)[C@H](CC(=O)O)NC(=O)[C@H](CO)NC(=O)[C@H](CCCNC(=N)N)N(C)C(=O)[C@@H](NC(C)=O)C(C)(C)SSC2(C)C)C(N)=O)C(=O)CCN)C(N)=O)NC(=O)[C@H](CC(C)C)NC1=O` [compound 186]: the IC50 lay within 100 to 500 nM.
